Test system: MCF-7 cells
Test: MCF-7 Estrogen Dependent Proliferation Assay
Assay type: cell-based
Conditions: Homo sapiens, MCF7, addition to Estrogen Depleted Media (EDM), read-out: EC50 of stimulation of growth of MCF-7 cells
From the text: MCF-7 cells (ATCC #HTB-22) are human mammary gland adenocarcinoma cells that require estrogen for growth. The growth media (GM) for the MCF-7 cells is Minimum Essential Media (without phenol red) supplemented with fetal bovine serum(FBS) to 10%. The FBS serves as the sole source of estrogen and this GM supports the full growth of the cells and is used for the routine growth of the cell cultures. When MCF-7 cells are placed in a media in which 10% Charcoal-Dextran treated fetal bovine serum (CD-FBS) is substituted for FBS, the cells will cease to divide but will remain viable. […] The addition of estradiol to EDM stimulates the growth of the MCF-7 cells in a dose dependent manner with an EC50 of 2 pM. Growing MCF-7 cells are washed several times with EDM and the cultures then maintained in EDM for a minimum of 6 days in order to deplete the cells of endogenous estrogen. […] At this point, the culture supernatants are aspirated, the cells washed 2×with PBS, the wash solution aspirated and the protein content of each well determined. Each drug dilution is evaluated on a minimum of 5 wells and the range of dilution of the test compounds in the assay is […] to 1000 nM. […] The assay is terminated at day 8-10 when the appropriate controls reach 80-90% confluency and the protein content of each well is determined as above.

EC50: 2 pM
SMILES: C[C@]12CC[C@@H]3c4ccc(O)cc4CC[C@H]3[C@@H]1CC[C@@H]2O [estradiol]

Reference: US6750213B2, “Estrogen receptor modulators” (Merck & Co., Inc., priority 2000, dated 2004)
